Laboratory results as given in patent US5654282A, “Selectin binding glycopeptides” (Glycomed Incorporated, priority 1995, dated 1997).

How the values were obtained:
L-selectin [1] = assay: ELISA assay, selectin-IgG chimera binding to 2,3 sLex glycolipid (L-selectin); details: FIG. 4; tested at several concentrations; results expressed as percent of control binding; values only in the figure
Protocol: (§1) An ELISA assay (Foxall et al, The Journal of Cell Biology (1992) 117:895) is preferably used which consists of the following three steps:
(§2) 1. 2,3 sLex glycolipid is transferred into microtitre wells as solutions and then evaporated off. Excess, which remained unattached, is washed off with water. The wells are then blocked with a blocking agent, preferably BSA.
(§3) 2. Preparation of "multivalent" receptor of the Selectin-IgG chimera is carried out by combining the respective chimera with biotin labelled goat F(ab')2 anti-human IgG (Fc specific) and streptavidin-alkaline phosphatase diluted appropriately and incubated. This allows the soluble multivalent receptor complex to form.
(§4) 3. Potential inhibitors such as glyco-amino acids or glycopeptides of structural formula I are allowed to react with the soluble receptor. This solution is then placed in the microtitre wells that are prepared in step 1. The plate is incubated to allow the soluble receptor to bind to its natural ligand. In the presence of a strong inhibitor only a few of the receptors should be free to bind to the microtitre plate coated with the natural ligand.
(§5) The positive control is the signal produced by the soluble receptor when it is allowed to react with the natural ligand in the microtitre wells in the absence of any inhibitor. This is considered 100% binding. The signal produced by the receptor that is previously treated with an inhibitor (recorded as O.D.), is divided by the signal produced by the positive control and multiplied by 100 to calculate the % receptor bound to the well in the presence of the inhibitor. The reciprocal of this is the % inhibition.
(§6) The glyco-amino acids or glycopeptides of structural formula I can be tested for their ability to bind to a selectin receptor and/or block the binding site of the receptor and thereby prevent a natural ligand from binding to the selectin receptor (Foxall et al, The Journal of Cell Biology (1992) 117:895). A generalized procedure for testing the ligands is given below.
(§7) An ELISA assay is preferably used which consisted of the following three steps:
1. 2,3 sLex glycolipid (25 picomol/well) was transferred into microtitre wells as solutions and evaporated off. Excess, which remained unattached, was washed off with water. The wells were blocked with 5% BSA at room temperature for an hour and washed with PBS containing 1 mM calcium.
2. Preparation of "multivalent" receptor of the Selectin-IgG chimera was carried out by combining the respective chimera (1 μg/mL) with biotin labelled goat F(ab')2 anti-human IgG (Fc specific) and streptavidin-alkaline phosphatase diluted 1:1000 in 1% BSA-PBS (1 mM calcium) and incubating at 37° C. for 15 min. This allowed the soluble multivalent receptor complex to form.
3. Potential inhibitors such as glyco-amino acids or glycopeptides of structural formula I were allowed to react with the soluble receptor at 37° C. for 45 min. This test assumes that optimal binding, between the soluble phase receptor complex and the inhibitor (non-natural ligand), would occur within this time frame. This solution was placed in the microtitre wells that were prepared in step 1. The plate was incubated at 37° C. for 45 minutes to allow the soluble receptor to bind to its natural ligand. In the presence of a strong inhibitor only a few receptors would be free to bind to the microtitre plate coated with the natural ligand.
as §5, with “control was” for “control is”, “it was” for “it is”, “This was” for “This is”, “that was” for “that is”, “O.D.), was” for “O.D.), is”

P-selectin [2] = assay: ELISA assay, selectin-IgG chimera binding to 2,3 sLex glycolipid (P-selectin); details: FIG. 5; tested at several concentrations; results expressed as percent of control binding; values only in the figure
Protocol: as §1, §2, §3, §4, §5, §6, §7
1. 2,3 sLex glycolipid (25 picomol/well) was transferred into microtitre wells as solutions and evaporated off. Excess, which remained unattached, was washed off with water. […]
as §5, with “was” for “is”, “This is considered 100% binding.” left out, “The reciprocal of this is the % inhibition.” left out

L-selectin [3] = assay: Stamper-Woodruff assay (lymphocyte adhesion to HEV of lymph node frozen sections); type: cell-based, Swiss Webster mice; Sprague-Dawley rats; details: FIG. 7; lymphocyte binding to HEV, percent of relative binding; values only in the figure
Description: (§8) Lymphocytes are known to circulate from blood to lymphoid tissues via high endothelial venules (HEV) on lymph nodes. L-selectin is expressed on the surface of lymphocytes and is believed to mediate lymphocyte adhesion by binding to the natural ligand on the HEV. The glyco-amino acids or glycopeptides of structural formula I can be tested for their ability to bind to a selectin receptor and/or block the binding site of the receptor and thereby prevent a natural ligand from binding to the selectin receptor. See, for example, Stoolman et al, The Journal of Cell Biology (1983) 96:722. The Stamper-Woodruff assay is well known in the art, and generally consists of the following three steps:
1. Preparation of the lymphocytes:
(a) The lymphocytes are obtained from the mesenteric nodes of female Swiss Webster mice, by gently teasing tissues with phosphate buffered saline (PBS). The cells are obtained by gently squeezing the cells from the tissues. The cells are dispersed and the cell clumps are removed. The single cell suspension is suspended, washed, and kept on ice until use (less than two hours). Cells are counted and prepared at an appropriate concentration.
(b) The superficial and deep cervical lymph nodes of female Sprague-Dawley rats are dissected and prepared in the same way as the mice.
2. Preparation of frozen sections:
Superficial or deep cervical lymph nodes are dissected from the animals, snap frozen, and immediately placed in a cryostat for sectioning. 10-μm sections are prepared and transferred onto glass slides, and air dried.
3. Potential inhibitors are added to lymphocyte suspensions 10-30 minutes before the start of the binding assay, and unless otherwise stated, are present throughout the subsequent binding incubation.
The frozen sections are used in the order in which they are cut. Aliquots of untreated lymphocytes (positive control), suspensions containing fucoidin (negative control) and suspensions containing potential inhibitors are layered on the sections in an arbitrary sequence such that the control and each test substance are represented once in a series.
The binding of the lymphocytes to the HEV is easily distinguishable from binding elsewhere by virtue of the characteristic picture of tightly packed, darkly stained lymphocytes overlaying the histologically distinctive HEV. The number of adherent lymphocytes on each HEV are counted and the average number of adherent cells per HEV (cells bound per HEV) is calculated. The results are expressed as a percent of relative binding, wherein the positive control is considered to be 100% binding.
as §8, with “were” for “can be”
(a) The lymphocytes were obtained from the mesenteric nodes of female Swiss Webster mice (23-27 g), by gently teasing tissues by phosphate buffered saline (PBS). […] Cells were counted and prepared at 3-4×10^7 cells/ml. […]

P-selectin [4] = assay: P-Selectin/HL-60 assay; type: cell-based; details: FIG. 6; HL-60 cells; tested at several concentrations; values only in the figure
Description: The glyco-amino acids or glycopeptides of structural formula I can be tested for their ability to inhibit P-selectin binding to its native ligand. A generalized procedure for testing the ligands is given below. A P-selectin/HL-60 assay is preferably used which consists of the following steps:
1. HL-60 cells are harvested and pelleted by centrifugation. The cells are washed, counted and the volume adjusted appropriately.
2. PVC microtiter plate is blocked with a blocking agent, and washed with TBS-BSA.
3. P-selectin is diluted appropriately in BSA-TBS Ca containing goat F(ab')2 anti-human IgG (Fc spec) and streptavidin-alkaline phosphatase. Positive controls have DMF added to equal the highest concentration of DMF in the sample compounds.
4. Ligands are incubated at room temperature with brisk rotation. […]
Para-nitrophenylphosphonate is added to the plate. […] Aliqouts from each well is transferred to a polystyrene microtiter plate and O.D. read at 405 nm. […] The signal produced by the receptor that is previously treated with an inhibitor (recorded as O.D.), is divided by the signal produced by the positive control and multiplied by 100 to calculate the % receptor bound to the well in the presence of the inhibitor. […]
1. […] The cells were washed three times with TBS without Ca, counted and the volume adjusted to 1.9×10^6 /ml in 1% BSA-TBS Ca just prior to use. […]

Row | Compound | inhibition of the binding of sLe^x to L-selectin (L-selectin [1]) | inhibition of the binding of sLe^x to P-selectin (P-selectin [2]) | inhibitory effects in the Stamper-Woodruff assay (cell adhesion) (L-selectin [3]) | inhibition of the binding of sLe^x to P-selectin in the HL-60 assay (P-selectin [4])
1 | C[C@@H]1O[C@@H](CC(=O)N[C@@H](CCCCNC(=O)OC(C)(C)C)C(=O)O)[C@@H](O)[C@H](O)[C@@H]1O [#3, N-ω-t-butoxylcarbonyl-N-α-[(1-deoxy-α-L-fucopyranosyl)acetyl]-L-lysine] | inhibit the binding of sLe^x to L-selectin | inhibit the binding of sLe^x to P-selectin | inhibitory effects | 
2 | C[C@H](NC(=O)C[C@@H]1O[C@@H](C)[C@@H](O)[C@@H](O)[C@@H]1O)C(=O)N1CCC[C@H]1C(=O)N[C@@H](Cc1ccccc1)C(=O)O [#2, N-[(1-deoxy-α-L-fucopyranosyl)acetyl]-L-alanine-L-proline-L-phenylalanine] | inhibit the binding of sLe^x to L-selectin |  | inhibitory effects | inhibit the binding of sLe^x to P-selectin
3 | CC1OC(CCCC(=O)NC(Cc2ccccc2)C(=O)O)C(O)C(O)C1O [#6, N-[4-(1-deoxy-α-L-fucopyranosyl)n-butanoyl]-L-phenylalanine] | inhibit the binding of sLe^x to L-selectin |  |  | 
4 | C[C@@H]1O[C@@H](CC(=O)N2CCC[C@H]2C(=O)N[C@H](C(=O)O)c2ccccc2)[C@@H](O)[C@H](O)[C@@H]1O [#5, N-[(1-deoxy-α-L-fucopyranosyl)acetyl]-L-proline-L-phenylglycine] | inhibit the binding of sLe^x to L-selectin | inhibit the binding of sLe^x to P-selectin | inhibitory effects | 
5 | C[C@@H]1O[C@@H](CC(=O)N2CCC[C@H]2C(=O)N[C@@H](Cc2ccccc2)C(=O)O)[C@@H](O)[C@H](O)[C@@H]1O [#1, N-[(1-deoxy-α-L-fucopyranosyl)acetyl]-L-proline-L-phenylalanine] | inhibit the binding of sLe^x to L-selectin | inhibit the binding of sLe^x to P-selectin | inhibitory effects | inhibit the binding of sLe^x to P-selectin
6 | C[C@@H]1O[C@@H](CCCC(=O)N2CCC[C@H]2C(=O)N[C@@H](Cc2ccccc2)C(=O)O)[C@@H](O)[C@H](O)[C@@H]1O [#4, N-[4-(1-deoxy-α-L-fucopyranosyl)n-butanoyl]-L-proline-L-phenylalanine] | inhibit the binding of sLe^x to L-selectin | inhibit the binding of sLe^x to P-selectin | inhibitory effects | 
